Values quoted from earlier work in patent publication US8394428B1, “Formulations and methods for preventing eyebrow hair loss” (RMV Trademarks, LLC, priority 2010, dated 2013).

Tested on: hair loss in human scalp
Details: topical application, after administration of cyclophosphamide

C=C1/C(=C\C=C2/CCC[C@]3(C)[C@@H]([C@H](C)CCCC(C)(C)O)CC[C@@H]23)C[C@@H](O)C[C@@H]1O [1,25-dihydroxyvitamin D3]
Prevention or retardation of hair loss: failed to prevent or retard hair loss
